Measured values published in publication PMC2613801 (Bioorganic & medicinal chemistry, 2008).

Experiments:
TRPV1 [1] = target: T1, TRPV1 (Rattus norvegicus, UniProt O35433); assay: capsaicin-induced 45Ca2+-uptake in primary dorsal root ganglion; assay type: cell-based; details: for Hill Slope ± SEM / enhancing activity (in words): primary DRG cells; for Hill Slope ± SEM: ~0.5 µM capsaicin, single assay run in quadruplicate wells; for enhancing activity (in words): in presence of capsaicin
TRPV1 [2] = target: T1, TRPV1; assay: capsaicin-induced 45Ca2+-uptake in TRPV1ε-NIH3T3 cells; assay type: cell-based; details: for Hill Slope ± SEM: enhancement of 45Ca2+-uptake in presence of 2 µM capsaicin; for enhancing activity (in words): in presence of 2 µM capsaicin
TRPV1 [3] = target: T1, TRPV1; assay: intracellular Ca2+ imaging; assay type: cell-based
[4] = target: human A3 adenosine receptor; details: read-out: Ki value at the A3 receptor; ref [30]; cited from earlier work

T1 sequence (O35433 whole entry): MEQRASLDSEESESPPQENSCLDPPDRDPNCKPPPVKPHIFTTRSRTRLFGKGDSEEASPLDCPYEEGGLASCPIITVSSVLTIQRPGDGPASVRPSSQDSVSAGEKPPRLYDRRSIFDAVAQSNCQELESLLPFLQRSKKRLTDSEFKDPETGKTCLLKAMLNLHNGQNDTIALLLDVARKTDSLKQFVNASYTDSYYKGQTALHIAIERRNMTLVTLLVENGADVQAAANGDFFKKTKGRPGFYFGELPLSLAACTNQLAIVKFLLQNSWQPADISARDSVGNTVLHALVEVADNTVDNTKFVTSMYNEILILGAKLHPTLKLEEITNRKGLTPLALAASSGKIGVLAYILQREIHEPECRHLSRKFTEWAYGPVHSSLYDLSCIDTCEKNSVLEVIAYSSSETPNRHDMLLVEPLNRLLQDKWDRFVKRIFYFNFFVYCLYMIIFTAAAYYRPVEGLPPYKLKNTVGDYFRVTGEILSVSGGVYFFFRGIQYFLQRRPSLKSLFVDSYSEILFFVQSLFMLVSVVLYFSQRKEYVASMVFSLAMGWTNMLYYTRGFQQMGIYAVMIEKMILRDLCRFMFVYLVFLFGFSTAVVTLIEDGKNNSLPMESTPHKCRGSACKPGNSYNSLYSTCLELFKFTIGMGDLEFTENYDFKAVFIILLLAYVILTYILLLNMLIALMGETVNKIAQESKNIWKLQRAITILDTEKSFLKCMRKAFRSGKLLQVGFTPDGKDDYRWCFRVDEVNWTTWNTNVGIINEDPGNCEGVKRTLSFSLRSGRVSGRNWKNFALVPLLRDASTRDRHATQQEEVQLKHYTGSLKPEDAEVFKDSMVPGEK

SMILES | Hill Slope ± SEM (TRPV1 [2]) | enhancing activity (in words) (TRPV1 [2]) | further results
CCOC(=O)C1=C(C)NC(c2cccc(F)c2)=C(C(=O)OCC)C1CC (racemic) [Compound 10, 3,5-Diethyl-2-methyl-4-ethyl-6-(3-fluorophenyl)-1,4-(±)-dihydropyridine-3,5-dicarboxylate] | 1.98 ± 0.30 | – | EC50 (TRPV1 [1]): 20.5 ± 1.1 µM; Hill Slope ± SEM (TRPV1 [1]): 2.64 ± 0.59
CCOC(=O)C1=C(C)NC(c2ccc(F)cc2)=C(C(=O)OCC)C1CC (racemic) [Compound 11, 3,5-Diethyl-2-methyl-4-ethyl-6-(4-fluorophenyl)-1,4-(±)-dihydropyridine-3,5-dicarboxylate] | 1.86 ± 0.42 | – | EC50 (TRPV1 [1]): 15.7 ± 1.3 µM; Hill Slope ± SEM (TRPV1 [1]): 2.01 ± 0.77
CCOC(=O)C1=C(c2cccc(F)c2)NC(C)=C(C(=O)SCC)C1CC (racemic) [Compound 14, 3-Ethylthio-5-ethyl-2-methyl-4-ethyl-6-(3-fluorophenyl)-1,4-(±)-dihydropyridine-3,5-dicarboxylate] | 1.59 ± 0.33 | strong, dosedependent effects | –
CCOC(=O)C1=C(c2ccc(F)cc2)NC(C)=C(C(=O)SCC)C1CC (racemic) [Compound 15, 3-Thioethyl-5-ethyl-2-methyl-4-ethyl-6-(4-fluorophenyl)-1,4-(±)-dihydropyridine-3,5-dicarboxylate] | 1.82 ± 0.33 | – | –
CCOC(=O)C1=C(C2CCCCC2)NC(C)=C(C(=O)SCC)C1CC (racemic) [Compound 17, 3-Ethylthio-5-ethyl-2-methyl-4-ethyl-6-cyclohexyl-1,4-(±)-dihydropyridine-3,5-dicarboxylate] | – | inactive | –
CCCC1C(C(=O)SCCc2ccccc2)=C(C)NC(c2ccccc2)=C1C(=O)OCC (racemic) [Compound 26, 3-(2-Phenylethylthio)-5-ethyl-2-methyl-4-propyl-6-phenyl-1,4-(±)-dihydropyridine-3,5-dicarboxylate] | 1.14 ± 0.32 | – | –
CCOC(=O)C1=C(c2ccccc2)N=C(C)/C(=C(/O)SCCOC)C1CC (stereo not shown) [Compound 23] | 1.79 ± 0.17 | strong, dosedependent effects | peak ratio (340/380, normalized to baseline) (TRPV1 [3]; 200 nM capsaicin in the presence of 10 µM 23, 30 sec, 69 cells): 1.701±0.001; fold increase in calcium influx (TRPV1 [2]; 2 µM capsaicin): 5.3 fold
COc1cc(CNC(=O)CCCC/C=C/C(C)C)ccc1O [capsaicin, reference compound] | – | – | peak ratio (340/380, normalized to baseline) (TRPV1 [3]; 200 nM capsaicin alone, 30 sec, 98 cells): 1.518±0.001; ED100 for capsaicin activation of TRPV1 (TRPV1 [2]; pH 7.5): ~ 2 µM
COC(=O)C1=C(C)NC(C)=C(C(=O)OCCN(C)Cc2ccccc2)C1c1cccc([N+](=O)[O-])c1 (stereo not shown) [nicardipine, reference compound] | – | not enhancers | Ki [4]: 3.25 µM; enhancing activity (in words) (TRPV1 [1]): not enhancers

Continued, in another order:

Hill Slope ± SEM (TRPV1 [2]) | enhancing activity (in words) (TRPV1 [2]) | SMILES | further results
1.45 ± 0.28 | – | CCOC(=O)C1=C(C)NC(c2cccc(Cl)c2)=C(C(=O)OCC)C1CC (racemic) [Compound 9, 3,5-Diethyl-2-methyl-4-ethyl-6-(3-chlorophenyl)-1,4-(±)-dihydropyridine-3,5-dicarboxylate] | Hill Slope ± SEM (TRPV1 [1]): 2.24 ± 0.53
1.18 ± 0.25 | slightly active | CCOC(=O)C1=C(c2ccc(F)cc2)NC(C)=C(C(=O)SCCc2ccccc2)C1CC (racemic) [Compound 29, 3-(2-Phenylethylthio)-5-ethyl-2-methyl-4-ethyl-6-(4-fluorophenyl)-1,4-(±)-dihydropyridine-3,5-dicarboxylate] | –
– | neutral | CCOC(=O)C1=C(c2ccc([N+](=O)[O-])cc2)NC(C)=C(C(=O)SCc2ccccc2)C1CC (racemic) [Compound 31] | enhancing activity (in words) (TRPV1 [1]): inactive
1.55 ± 0.17 | – | CCOC(=O)C1=C(c2ccccc2)N=C(C)/C(=C(/O)SCC)C1CC (stereo not shown) [Compound 12] | –
1.38 ± 0.23 | strong, dosedependent effects | CCCC1C(C(=O)OCC)=C(c2ccccc2)N=C(C)/C1=C(/O)SCC (stereo not shown) [Compound 18] | EC50 (TRPV1 [1]): 10.5 ± 1.1 µM; Hill Slope ± SEM (TRPV1 [1]): 1.47 ± 0.16
– | no enhancing effect | CCOC(=O)C1=C(C)NC(c2ccccc2)=C(C(=O)OCc2ccccc2)C1C#Cc1ccccc1 (stereo not shown) [MRS1191, 1,4-dihydro-2-methyl-6-phenyl-4-(phenylethynyl)-3,5-pyridinedicarboxylic acid, 3-ethyl 5-(phenylmethyl) ester, reference compound] | –
– | not enhancers | CO/C(O)=C1\C(C)=NC(C)=C([N+](=O)[O-])[C@H]1c1ccccc1C(F)(F)F [S(–)-Bay K 8644, reference compound] | enhancing activity (in words) (TRPV1 [1]): not enhancers
